Data from patent US11802120B2, “Fused cyclic urea derivatives as CRHR2 antagonist” (RaQualia Pharma Inc., priority 2018, dated 2023).

Target: T1, human CRHR2-alpha (Homo sapiens, UniProt Q13324)
T1 sequence (Q13324 1-411): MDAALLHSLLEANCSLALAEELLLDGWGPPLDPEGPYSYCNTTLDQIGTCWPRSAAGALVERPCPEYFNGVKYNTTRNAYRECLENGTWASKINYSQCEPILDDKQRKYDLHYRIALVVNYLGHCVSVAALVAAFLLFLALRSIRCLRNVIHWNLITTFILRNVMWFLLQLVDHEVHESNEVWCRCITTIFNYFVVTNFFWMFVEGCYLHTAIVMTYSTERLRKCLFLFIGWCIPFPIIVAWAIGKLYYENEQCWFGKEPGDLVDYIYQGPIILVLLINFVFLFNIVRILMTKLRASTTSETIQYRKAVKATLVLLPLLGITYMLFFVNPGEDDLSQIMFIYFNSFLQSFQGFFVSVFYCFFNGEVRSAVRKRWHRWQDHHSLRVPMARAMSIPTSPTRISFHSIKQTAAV
Experiment: cAMP functional assay for human CRHR2 (LANCE Ultra cAMP, TR-FRET)
Assay type: cell-based
Settings: CHO-K1 cells expressing human CRHR2-alpha, agonist human urocortin2 at EC80, cAMP; read-out: IC50 against CRHR2
Procedure, shortened: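 First, starved and frozen CHO-K1 cells expressing the receptor are thawed into IBMX-containing HBSS buffer (pH 7.4). Next, compounds are added for 30 min at 25° C. Then agonist at EC80 (urocortin2 or CRF, per receptor) is added for another 30 min, followed by cAMP detection reagents.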

IC50, < 300 nM:
Cc1ncc(Cl)cc1C(=O)N[C@H]1CC[C@H](Cn2c(=O)n(-c3ccc(N4CC(N(C)C)C4)nc3)c3ccccc32)CC1 [Example 161, 5-chloro-N-((1r,4r)-4-((3-(6-(3-(dimethylamino)azetidin-1-yl)pyridin-3-yl)-2-oxo-2,3-dihydro-1H-benzo[d]imidazol-1-yl)methyl)cyclohexyl)-2-methylnicotinamide]
COc1cncc(-n2c(=O)n(C[C@H]3CC[C@H](NC(=O)c4cc(Cl)cnc4C)CC3)c3ccccc32)c1 [Example 484, 5-chloro-N-((1r,4r)-4-((3-(5-methoxypyridin-3-yl)-2-oxo-2,3-dihydro-1H-benzo[d]imidazol-1-yl)methyl)cyclo-hexyl)-2-methylnicotinamide]
Cc1ncc(Cl)cc1C(=O)N[C@H]1CC[C@H](Cn2c(=O)n(-c3ccc(NC4CC4)nc3)c3ccccc32)CC1 [Example 101, 5-chloro-N-((1r,4r)-4-((3-(6-(cyclopropylamino)pyridin-3-yl)-2-oxo-2,3-dihydro-1H-benzo[d]imidazol-1-yl)methyl)cyclohexyl)-2-methylnicotinamide]
CN1CCN(c2cccc(-n3c(=O)n(C[C@H]4CC[C@H](NC(=O)c5cc(Cl)cnc5C(F)F)CC4)c4ccccc43)n2)C1=O [Example 774, 5-chloro-2-(difluoromethyl)-N-((1r,4r)-4-((3-(6-(3-methyl-2-oxoimidazolidin-1-yl)pyridin-2-yl)-2-oxo-2,3-dihydro-1H-benzo[d]imidazol-1-yl)methyl)cyclohexyl) nicotinamide]
N#Cc1nccnc1-n1c(=O)n(C[C@H]2CC[C@H](NC(=O)c3cc(Cl)cnc3C(F)F)CC2)c2ccccc21 [Example 369, 5-chloro-N-((1r,4r)-4-((3-(3-cyanopyrazin-2-yl)-2-oxo-2,3-dihydro-1H-benzo[d]imidazol-1-yl)methyl)cyclohexyl)-2-(difluoromethyl)nicotinamide]
Cc1ncc(Cl)cc1C(=O)N[C@H]1CC[C@H](Cn2c(=O)n(-c3ccc(OC(F)F)nc3)c3ccccc32)CC1 [Example 97, 5-chloro-N-((1r,4r)-4-((3-(6-(difluoromethoxy)pyridin-3-yl)-2-oxo-2,3-dihydro-1H-benzo[d]imidazol-1-yl)methyl)cyclohexyl)-2-methylnicotinamide]
Cc1ncc(Cl)cc1C(=O)N[C@H]1CC[C@H](Cn2c(=O)n(-c3ccc4c(c3)oc(=O)n4CC3CC3)c3ccccc32)CC1 [Example 195, 5-chloro-N-((1r,4r)-4-((3-(3-(cyclopropylmethyl)-2-oxo-2,3-dihydrobenzo[d]oxazol-6-yl)-2-oxo-2,3-dihydro-1H-benzo[d]imidazol-1-yl)methyl)cyclohexyl)-2-methylnicotinamide]
COc1ccc(-n2c(=O)n(C[C@H]3CC[C@H](NC(=O)c4c5ccccc5nn4C)CC3)c3ccccc32)cn1 [Example 220, N-((1r,4r)-4-((3-(6-methoxy-pyridin-3-yl)-2-oxo-2,3-dihydro-1H-benzo[d]imidazol-1-yl)methyl)cyclohexyl)-2-methyl-2H-indazole-3-carboxamide]
CNC(=O)c1ccc(-n2c(=O)n(C[C@H]3CC[C@H](NC(=O)c4cc(C(F)(F)F)cnc4C)CC3)c3ccccc32)cn1 [Example 491, N-methyl-5-(3-(((1r,4r)-4-(2-methyl-5-(trifluoromethyl)nicotinamido)cyclohexyl)methyl)-2-oxo-2,3-dihydro-1H-benzo[d]imidazol-1-yl) picolinamide]
Cc1ncc(Cl)cc1C(=O)N[C@H]1CC[C@H](Cn2c(=O)n(-c3ccc(-c4ccn(C)n4)nc3)c3ccccc32)CC1 [Example 654, 5-chloro-2-methyl-N-((1r,4r)-4-((3-(6-(1-methyl-1H-pyrazol-3-yl)pyridin-3-yl)-2-oxo-2,3-dihydro-1H-benzo[d]imidazol-1-yl)methyl)cyclohexyl)nico-tinamide]
Cc1ncc(Cl)cc1C(=O)N[C@H]1CC[C@H](Cn2c(=O)n(-c3ccc4c(CO)noc4c3)c3ccccc32)CC1 [Example 261, 5-chloro-N-((1r,4r)-4-((3-(3-(hydroxymethyl)benzo[d]isoxazol-6-yl)-2-oxo-2,3-dihydro-1H-benzo[d]imidazol-1-yl)methyl)cyclohexyl)-2-methylnicotinamide]
Cc1ncc(Cl)cc1C(=O)N[C@H]1CC[C@H](Cn2c(=O)n(-c3ccc(OCCCO)nc3)c3ccccc32)CC1 [Example 134, 5-chloro-N-((1r,4r)-4-((3-(6-(3-hydroxypropoxy)pyridin-3-yl)-2-oxo-2,3-dihydro-1H-benzo[d]imidazol-1-yl)methyl)cyclohexyl)-2-methylnicotinamide]
Cc1ncc(Cl)cc1C(=O)N[C@H]1CC[C@H](Cn2c(=O)n(-c3ccc4nnn(C)c4c3)c3ccccc32)CC1 [Example 232, 5-chloro-2-methyl-N-((1r,4r)-4-((3-(1-methyl-1H-benzo[d] [1,2,3]triazol-6-yl)-2-oxo-2,3-dihydro-1H-benzo[d]imidazol-1-yl)methyl)cyclohexyl) nicotinamide]
Cc1ncc(Cl)cc1C(=O)N[C@H]1CC[C@H](Cn2c(=O)n(Cc3ccccc3)c3ncccc32)CC1 [Example 448, N-((1r,4r)-4-((3-benzyl-2-oxo-2,3-dihydro-1H-imidazo [4,5-b]pyridin-1-yl)methyl)cyclohexyl)-5-chloro-2-methylnicotinamide]
Cc1ncc(Cl)cc1C(=O)N[C@H]1CC[C@H](Cn2c(=O)n(-c3ccc4c(=O)[nH]cnc4c3)c3ccccc32)CC1 [Example 305, 5-chloro-2-methyl-N-((1r,4r)-4-((2-oxo-3-(4-oxo-3,4-dihydroquinazolin-7-yl)-2,3-dihydro-1H-benzol[d]imidazol-1-yl)methyl)cyclohexyl)nicotinamide]
Cc1ncc(Cl)cc1C(=O)N[C@H]1CC[C@H](Cn2c(=O)n(-c3ccc(SCCO)nc3)c3ccccc32)CC1 [Example 412, 5-chloro-N-((1r,4r)-4-((3-(6-((2-hydroxyethyl)thio)pyridin-3-yl)-2-oxo-2,3-dihydro-1H-benzo[d]imidazol-1-yl)methyl)cyclohexyl)-2-methylnicotinamide]
Cc1ncc(Cl)cc1C(=O)N[C@H]1CC[C@H](Cn2c(=O)n(-c3cnc4c(c3)nnn4C)c3ccccc32)CC1 [Example 275, 5-chloro-2-methyl-N-((1r,4r)-4-((3-(3-methyl-3H-[1,2,3]triazolo[4,5-b]pyridin-6-yl)-2-oxo-2,3-dihydro-1H-benzo [d]imidazol-1-yl)methyl)cyclohexyl)nicotinamide]
O=C(N[C@H]1CC[C@H](Cn2c(=O)n(-c3ccnc(-c4cnco4)c3)c3ccccc32)CC1)c1cc(Cl)cnc1C(F)F [Example 687, 5-chloro-2-(difluoromethyl)-N-((1r,4r)-4-((3-(2-(oxazol-5-yl)pyridin-4-yl)-2-oxo-2,3-dihydro-1H-benzo[d]imidazol-1-yl)methyl)cyclohexyl) nicotinamide]
N#Cc1cccnc1-n1c(=O)n(C[C@H]2CC[C@H](NC(=O)c3cc(Cl)cnc3C(F)F)CC2)c2ccccc21 [Example 375, 5-chloro-N-((1r,4r)-4-((3-(3-cyanopyridin-2-yl)-2-oxo-2,3-dihydro-1H-benzo[d]imidazol-1-yl)methyl)cyclohexyl)-2-(difluoromethyl)nicotinamide]
COc1cncc(-n2c(=O)n(C[C@H]3CC[C@H](NC(=O)c4cc(Cl)cnc4C(F)F)CC3)c3ccccc32)c1 [Example 683, 5-chloro-2-(difluoromethyl)-N-((1r,4r)-4-((3-(5-methoxy-pyridin-3-yl)-2-oxo-2,3-dihydro-1H-benzo[d]imidazol-1-yl)methyl)cyclohexyl) nicotinamide]
CNC(=O)c1ccc(-n2c(=O)n(C[C@H]3CC[C@H](NC(=O)c4cc(Cl)cnc4CCOC)CC3)c3ccccc32)cn1 [Example 321, 5-(3-(((1r,4r)-4-(5-chloro-2-(2-methoxyethyl)nico-tinamido)cyclohexyl)methyl)-2-oxo-2,3-dihydro-1H-benzo [d]imidazol-1-yl)-N-methylpicolinamide]
COCCOc1ccc(-n2c(=O)n(C[C@H]3CC[C@H](NC(=O)c4cc(Cl)cnc4C(F)F)CC3)c3ccccc32)cn1 [Example 477, 5-chloro-2-(difluoromethyl)-N-((1r,4r)-4-((3-(6-(2-methoxy-ethoxy)pyridin-3-yl)-2-oxo-2,3-dihydro-1H-benzo[d]imidazol-1-yl)methyl)cyclohexyl) nicotinamide]
O=C(N[C@H]1CC[C@H](Cn2c(=O)n(-c3ccncc3Cl)c3ncccc32)CC1)c1cc(Cl)cnc1C(F)F [Example 496, 5-chloro-N-((1r,4r)-4-((3-(3-chloropyridin-4-yl)-2-oxo-2,3-dihydro-1H-imidazo[4,5-b]pyridin-1-yl)methyl)cyclohexyl)-2-(difluoromethyl)nicotinamide]
